# Laboratory results: US11135326B2, “Storage-stable aqueous solutions of chlorine dioxide and methods for preparing and using them” (CDG ENVIRONMENTAL, LLC, priority 2005, dated 2021)
# Key:
# [1] = Storage stability of aqueous chlorine dioxide solutions, concentration measured by amperometric titration
# From the text: To determine the impact of various contaminants, the inventors set up a series of experiments to test the effect of the contaminants at various concentrations.
# Pure water containing less than 1 ppm solid impurities was used to dissolve the chlorine dioxide gas and form the aqueous chlorine dioxide solutions at a concentration of 3000 ppm+/−5% chlorine dioxide as the initial starting concentration. The data in the figures is reported as % of starting concentration unless otherwise noted.
# All data on concentration of aqueous solutions were measured by amperometric titration as described in EPA Standard Methods. Serial dilution was used to adjust to the range of the analytical device.
# The accuracy of the analytical technique used is ±3%. Any variation of less than 3% is not considered significant.
# [2] = cited from earlier work
smiles,measurement,setting,value
[O][Cl+][O-] [chlorine dioxide],loss of concentration (in words),"[1]; 1500-6000 ppm of salt, even at room temperature, compared with about 100 ppm or less",much higher
same,rate of deterioration (in words),"[1]; 3000 ppm, alkali metal salts at 100 ppm, 40° C.",deteriorate at a much higher rate
same,lose % of their concentration,"[1]; 3000 ppm, less than 10 ppm alkali metal salts, about 100 days, temperatures up to 40° C.",less than 10%
same,shelf life (in words),"[1]; FIG. 2, 4500 ppm starting concentration, distilled water, amber glass bottles, 10° C. to about 40° C.",commercially acceptable shelf life
same,retains % of its starting concentration,"[1]; FIG. 2, pure chlorine dioxide at about 3000 ppmw in pure water, 40° C., more than 90 days",≥ 90%
same,stability in PET bottles (in words),"[1]; FIG. 4, distilled water, 750 mL biaxially oriented PET bottles, after an initial rapid rate of loss",almost as stable as that stored in glass
same,stability (in words),"[1]; FIG. 5, 25° C. and up to 100 ppm NaCl",equally stable within the margin of error
same,rate of deterioration (in words),"[1]; FIG. 5, 100 ppm Na+ and 40° C.",deteriorated at a markedly higher rate
same,effect of manganese ions on storage stability (in words),"[1]; FIG. 10, 3000 ppm initial, small amounts of manganese ions (e.g., 10 ppm)",greatly diminish the storage stability
same,shelf life of refrigerated solutions,"[1]; refrigerated, inferred from FIG. 2 data",about a year or more
same,minimum decomposition rate,"[2]; pH of 4.85 to 3.90, U.S. 2002/0037248",0.6 % per hour
same,strength lost,"[2]; within 24 hours, U.S. Pat. No. 7,229,647",80-90%
